Patent US20080089859A1, “ADMINISTRATION OF SLEEP RESTORATIVE AGENTS” (priority 2001, published 2008)

Assays:
[1] = tested on: rheumatoid arthritis (Ra) and Psoriatic arthritis (PsA) patients; experiment: Study of Example 1 continued to 18 months (Example 2); assay type: in vivo, human; conditions: for Response of improved patients after adding the agent to their treatment: 12 month to 18 month time point, on Etanercept
Source text: The study of Example 1 was continued to 18 months. […] Fibromyalgia was a surrogate for a lack of deep (e.g., stage IV) restorative sleep.
JC refers to the number of swollen tender joints.

[2] = tested on: patients with Behcet's Syndrome; experiment: Treatment of patients with Behcet's Syndrome; assay type: in vivo, human; conditions: for Symptoms observed in the patient: second patient (pramipexole added to lorazepam), third patient (clonazepam 2 mg qhs); for Discontinuation of prednisone: single patients, lorazepam 2 mg qhs (patient 1), pramipexole added to lorazepam (patient 2), clonazepam 2 mg qhs (patient 3)
Method: Three patients with Behcet's Syndrome were treated according to the present invention. For one patient, prednisone administration was supplemented with lorazepam at 2 mg qhs. […] For a second patient, lorazepam at 2 mg qhs was co-admnistered with Dapsone and prednisone.

[3] = tested on: patients with Palindromic Rheumatism; experiment: Treatment of patients with Palindromic Rheumatism; assay type: in vivo, human; conditions: five patients; clonazepam 2 mg, pramipexole 1-6 mg and/or lorazepam 2 mg qhs
Method: Five patient with Palindromic Rheumatism were treated according to the present invention. After adding clonazepam 2 mg, pramipexole 1-6 mg and/or lorazepam 2 mg qhs to their treatment, the patients reported that episodic severe pain decreased dramatically, by 90%.

[4] = tested on: patients having rheumatoid arthritis; experiment: Rheumatoid arthritis patients on Leflunamide given sleep restorative agents; assay type: in vivo, human; conditions: lorazepam, clonazepam and/or pramipexole
[5] = tested on: patients with Sjogren's Syndrome; experiment: Treatment of patients with dry eyes and mouth from Sjogren's Syndrome; assay type: in vivo, human; conditions: Lorazepam 1-2 mg po qhs, Pramipexole later 0.5-4.0 mg qhs; for Resolution of dryness (eyes and mouth): 3 patients on Hydroxychloroquine 200 mg po bid, nearly complete resolution in third patient; for Hydroxychloroquine sparing: 3 patients
Method: Three patients with dry eyes and mouth from Sjogren's Syndrome, were treated with lorazepam or pramipexole. […] Lorazepam was administered at 1-2 mg po qhs. Pramipexole was later administered at 0.5-4.0 mg qhs.

[6] = tested on: patients with Ankylosing Spondylitis; experiment: Treatment of patients with Ankylosing Spondylitis; assay type: in vivo, human; conditions: six patients on Methotrexate, steroids 2-10 mg qd and Etanercept; lorazepam 1-2 mg qhs or pramipexole 0.5-3.0 mg qhs
Method: Six patients with Ankylosing Spondylitis were treated according to the present invention. […] The patients were administered lorazepam 1-2 mg qhs or pramipexole 0.5-3.0 mg qhs.

[7] = tested on: patients with Systemic Lupus Erythematosis; experiment: Treatment of patients with Systemic Lupus Erythematosis; assay type: in vivo, human
Method: Patients with Systemic Lupus Erythematosis were treated according to the present invention.
The dose range of pramipexole ranged from 2-6 mg qhs.

[8] = tested on: patient with chronic gout; experiment: Treatment of a patient with chronic gout and severe synovitis; assay type: in vivo, human; conditions: for Discontinuation of other medications / Prednisone dose reached: one patient; for Discontinuation of other medications: pramipexole and lorazepam added together; for Prednisone dose reached: colchicine, hydroxychloroquine and Etanercept added together, before sleep agents
Method: Adding colchicine, hydroxychloroquine and Etanercept only allowed them to decrease prednisone to 15 mg qd.

patient with pseudogout = experiment: Treatment of a patient with pseudogout; assay type: in vivo, human; conditions: one patient on colchicine; lorazepam 2 mg qhs added for sleep
[9] = tested on: patients with Multiple Sclerosis (MS); conditions: for MS activity: three patients, pramipexole and/or lorazepam added; for Tolerability: human, in vivo
Method: Eight patients with Multiple Sclerosis (MS) were treated according to the present invention.

[10] = tested on: patients having rheumatoid arthritis; experiment: Rheumatoid arthritis patients on Infliximab given sleep restorative agents; assay type: in vivo, human; conditions: lorazepam 1-2 mg qhs or pramipexole
[11] = tested on: patient with ocular and articular Sarcoidosis; conditions: one patient steroid-dependent for two years; Pramipexole to 3 mg qhs
Source text: A patient with ocular and articular Sarcoidosis was steroid-dependent for two years.

[12] = tested on: patient with Reiter's Syndrome; conditions: one patient on Etanercept; pramipexole up to 4 mg qhs
[13] = tested on: patients having rheumatoid arthritis; experiment: Rheumatoid arthritis patients on prednisone given Ropinirole; assay type: in vivo, human; conditions: Ropinirole 2-20 mg qhs

With O=C1CN=C(c2ccccc2Cl)c2cc([N+](=O)[O-])ccc2N1 [Clonazepam] the “Response of improved patients after adding the agent to their treatment” value (from here on “Response of improved patients”) [1] was “did much better from the 12 month time point to the 18 month time point”, the “Symptoms observed in the patient” value [2] was “less fatigue and no further mouth ulcers were observed” and the Discontinuation of prednisone [2] was “able to discontinue prednisone 10 mg qd”. For the same compound, the “Decrease of episodic severe pain” value [3] was 90%, the Other medications stopped [3] was “off narcotics, steroids, Etanercept, Infliximab, leflunamide, Azothioprine, sulfasalazine, hydroxychloroquine and colchicine” and the Leflunamide efficacy [4] was “increased Leflunamide efficacy”.
For O=C1Nc2ccc(Cl)cc2C(c2ccccc2Cl)=NC1O (stereo not shown) [Lorazepam], the “Response of improved patients” value [1] was “did much better from the 12 month time point to the 18 month time point”, the “Resolution of dryness (eyes and mouth)” value [5] was “Complete resolution of the dryness in 2 of 3 patients” and the Hydroxychloroquine sparing [5] was “One daily dose of Hydroxychloroquine was discontinued and benefit maintained”. For the same compound, the “Discontinuation of Dapsone” value ([2]; second patient, lorazepam 2 mg qhs with Dapsone and prednisone) was “Dapsone could be discontinued without further seizures”, the Discontinuation of prednisone [2] was “able to d/c prednisone in two months” and the “Discontinuation of Methotrexate and steroids” value [6] was “All six patients were able to discontinue Methotrexate and steroids”. The Prednisone dose reached ([7]; patient steroid-dependent at 20 mg qd on leflunamide, lorazepam 2 mg qhs added) was 15 mg qhs, the “Decrease of episodic severe pain” value [3] was 90% and the Other medications stopped [3] was “off narcotics, steroids, Etanercept, Infliximab, leflunamide, Azothioprine, sulfasalazine, hydroxychloroquine and colchicine”. The “Discontinuation of other medications” value [8] was “allowed the patient to discontinue steroids, colchicine, hydroxychoroquine, and narcotics”, the Flares (patient with pseudogout) was “no flares for three years” and the Sleep and fibromyalgia ([9]; one patient flaring uncontrollably, Lorazepam 2 mg qhs) was “still exhibited poor sleep and fibromyalgia”. For the same compound, the MS activity [9] was “MS was quiet for over three years”, the Leflunamide efficacy [4] was “increased Leflunamide efficacy” and the Infliximab efficacy [10] was “increased efficacy of Infliximab”.
In the case of CCCNC1CCc2nc(N)sc2C1 (stereo not shown) [Pramipexole, 2-amino-4,5,6,7-tetrahydro-6-(propylamino)benzo-thiazole], the “Response of improved patients” value [1] is reported as “did much better from the 12 month time point to the 18 month time point”, the “Expected prednisone discontinuation after conversion back to inactive FM” value ([1]; one patient who developed FM and needs prednisone 10 mg qd, planned treatment) is reported as “expected to allow them to discontinue prednisone” and the “Resolution of dryness (eyes and mouth)” value [5] is reported as “Complete resolution of the dryness in 2 of 3 patients”. The Hydroxychloroquine sparing [5] was “One daily dose of Hydroxychloroquine was discontinued and benefit maintained”, the “Symptoms observed in the patient” value [2] was “No fatigue, mouth ulcers, skin vasculitis, hoarse voice or seizures were observed” and the Discontinuation of prednisone [2] was “prednisone 5 mg qd could be discontinued”. The “Discontinuation of Methotrexate and steroids” value [6] was “All six patients were able to discontinue Methotrexate and steroids”, the “Decrease or d/c of prednisone” value ([7]; 8 patients, pramipexole 2-6 mg qhs) was 80% and the Prednisone dose reached ([7]; person with life threatening leukopenia, steroids 60 mg qd before, Pramipexole increased to 3.5 mg q hs over 3 months) was 5 mg qd. The Symptoms noted ([7]; same patient after pramipexole 3-4.5 mg qhs) was “much less fatigue, anemia, joint pain, and had stable kidney function”, the Prednisone dose reached ([7]; same patient, pramipexole 3-4.5 mg qhs added, first time in 7 years) was 5 mg qd and the Complete blood count ([7]; same person, after Pramipexole) was “maintaining normal complete blood count”. For the same compound, the “Decrease of steroids with disease still controlled” value [11] was 90%, the “Decrease of episodic severe pain” value [3] was 90% and the Other medications stopped [3] was “off narcotics, steroids, Etanercept, Infliximab, leflunamide, Azothioprine, sulfasalazine, hydroxychloroquine and colchicine”. For the same compound, the “Discontinuation of other medications” value [8] was “allowed the patient to discontinue steroids, colchicine, hydroxychoroquine, and narcotics”, the Tolerability [9] was “intolerant” and the MS activity [9] was “MS was quiet for over three years”. The Leflunamide efficacy [4] was “increased Leflunamide efficacy”, the Infliximab efficacy [10] was “increased efficacy of Infliximab” and the “Discontinuation of other medications” value [12] was “able to discontinue methotrexate, steroids 5-10 mg qd, and narcotics”. The “Response of dactylitis and synovitis” value [12] was “dactylitis and synovitis responded better to Etanercept”.
With CCCN(CCC)CCc1cccc2c1CC(=O)N2.Cl [Ropinirole, 4-[2-(dipropylamino)-ethyl]-1,3-dihydro-2H-indol-2-one mono hydrochloride] the Tolerability [9] was “intolerant” and the Prednisone dose [13] was “able to lower their prednisone doses”.
COc1cc2c(c(OC)c1OC)-c1ccc(OC)c(=O)cc1[C@@H](NC(C)=O)CC2 [colchicine] was tested, and the Prednisone dose reached [8] was 15 mg qd and the Flares (patient with pseudogout) was “flare ups were previously uncontrolled”.
CCN(CCO)CCCC(C)Nc1ccnc2cc(Cl)ccc12 (stereo not shown) [hydroxychloroquine] was tested, and the Prednisone dose reached [8] was 15 mg qd.
C[C@]12C=CC(=O)C=C1CC[C@@H]1[C@@H]2C(=O)C[C@@]2(C)[C@H]1CC[C@]2(O)C(=O)CO [prednisone] was tested, and the “Control of severe synovitis” value ([8]; prednisone 10-40 mg qd for two months) was “uncontrolled”.
